Data: patent US20120269790A1, “USE OF PLANT EXTRACTS AS PREBIOTICS, COMPOSITIONS AND FOODS CONTAINING SUCH EXTRACT” (priority 2009, published 2012)

Assays:
[1] = molecular target: T1, alpha-amylase from pancreas of pig (Sus scrofa, UniProt P00690); assay: In vitro inhibition of pig alpha-amylase; type: biochemical; conditions: 35 micrograms/ml; 100% = activity without inhibitor
T1 construct: alpha-amylase from pancreas of pig; purchased Sigma; host or cells: pig pancreas
T1 sequence (P00690 16-511): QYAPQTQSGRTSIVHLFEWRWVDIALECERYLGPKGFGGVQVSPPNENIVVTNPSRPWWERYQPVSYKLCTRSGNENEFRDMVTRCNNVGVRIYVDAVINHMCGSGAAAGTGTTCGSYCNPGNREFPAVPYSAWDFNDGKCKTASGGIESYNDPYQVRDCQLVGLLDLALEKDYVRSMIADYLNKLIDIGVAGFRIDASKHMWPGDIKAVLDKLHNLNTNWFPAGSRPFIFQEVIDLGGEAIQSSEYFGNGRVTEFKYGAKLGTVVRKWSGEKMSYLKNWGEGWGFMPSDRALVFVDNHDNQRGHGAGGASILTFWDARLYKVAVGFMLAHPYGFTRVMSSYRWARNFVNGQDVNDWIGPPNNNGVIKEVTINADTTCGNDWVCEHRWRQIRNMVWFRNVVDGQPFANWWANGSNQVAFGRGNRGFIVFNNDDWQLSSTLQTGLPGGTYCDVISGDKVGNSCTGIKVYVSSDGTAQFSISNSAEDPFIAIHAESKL
Description: The enzymes tested were obtained from the following sources: alpha-amylase from pancreas of pig and alpha-glucosidase from Saccharomyces cerevisiae (both purchased from Sigma) and alpha-glucosidase from pig (isolated from pig intestine according to Menakshy et al. 2008).
Measures alpha-amylase activity and alpha-glucosidase were carried out according to procedures supplied by Sigma acquired with enzymes. Briefly, the alpha-glucosidase activity was determined spectrophotometrically at 400 nm, with p-Nitrophenyl α-D-Glucoside (PNP) as substrate and alpha-amylase activity was determined spectrophotometrically at 540 nm, with soluble potato starch as substrate. As a positive control measurements were performed with acarbose as inhibitor.
For measures with pig alpha-amylase the positive control measures were with acarbose at 35 micrograms/ml, while the concentration of pomegranate extract tested was 250 micrograms/ml.

[2] = molecular target: T2, 3-hydroxy-3-methylglutaryl-CoA reductase (HMGR) (Homo sapiens, UniProt P04035); assay: In vitro HMGR activity (Sigma kit); type: biochemical; conditions: 500 nanomolar; 100% = activity without inhibitor
T2 construct: purchased Sigma
T2 sequence (P04035 426-888 limits assumed): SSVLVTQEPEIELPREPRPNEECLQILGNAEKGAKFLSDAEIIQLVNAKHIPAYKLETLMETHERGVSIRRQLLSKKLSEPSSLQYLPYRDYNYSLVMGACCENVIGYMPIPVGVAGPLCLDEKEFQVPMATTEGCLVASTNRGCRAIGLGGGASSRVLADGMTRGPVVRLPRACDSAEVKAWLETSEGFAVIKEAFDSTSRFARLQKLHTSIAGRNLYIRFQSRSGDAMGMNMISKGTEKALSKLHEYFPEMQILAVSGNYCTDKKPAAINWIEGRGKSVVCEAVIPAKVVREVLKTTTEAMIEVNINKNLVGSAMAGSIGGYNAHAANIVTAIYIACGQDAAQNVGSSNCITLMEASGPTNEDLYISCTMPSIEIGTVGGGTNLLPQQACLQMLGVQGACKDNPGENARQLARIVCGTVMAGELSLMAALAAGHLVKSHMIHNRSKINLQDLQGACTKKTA
Description: Measurements were performed in triplicate. In the case of HMGR concentration measurements used for positive control with pravastatin was 500 nanomolar, while the concentration of pomegranate extract tested was 100 micrograms/ml.

| SMILES | % Pig alfa-amilase Activity [1] | % HMGR activity [2] |
| --- | --- | --- |
| C[C@H]1O[C@H](O[C@H]2[C@H](O)[C@@H](O)[C@@H](O[C@H]3[C@H](O)[C@@H](O)C(O)O[C@@H]3CO)O[C@@H]2CO)[C@H](O)[C@@H](O)[C@@H]1N[C@H]1C=C(CO)[C@@H](O)[C@H](O)[C@H]1O (some centres unmarked) [acarbose] | 41.2 ± 2.3% |  |
| CC[C@H](C)C(=O)O[C@H]1C[C@H](O)C=C2C=C[C@H](C)[C@H](CC[C@@H](O)C[C@@H](O)CC(=O)O)[C@H]21 [pravastatine, pravastatin] |  | 9.7 ± 3.4% |
